Earlier results, collected in PubChem BioAssay AID1259409 (Chemical Carcinogenesis Research Information System (CCRIS), 2018).
*1 amine or outer side, *2 acyl side, *3 side chain or, on linkers, in order; H or OH if unused. Where a SMILES comes first, the peptide text is derived from it. [ ]: non-standard residue; d: D form. X1 = O=C(C(N[*:1])c1ccc(OS(=O)(=O)O)cc1)[*:2]

System: rodent chemically induced tumor inhibition, incidence and multiplicity
Assay: CCRIS tumor inhibitor studies
Details: Carcinogen: N-NITROSOBIS(2-OXOPROPYL)AMINE, 60599-38-4, Route [Inhibitor]: SUBCUTANEOUS, Species: HAMSTER, Strain/Sex: SYRIAN/MALE, FEMALE, Promoter: NONE USED

CCC(C)C(NC(=O)C(CCCNC(=N)N)NC(=O)C(Cc1c[nH]cn1)NC(=O)C(CO)NC(=O)C1CCCN1C(=O)C(CC(=O)O)NC(=O)C(CC(C)C)NC(=O)C(CC(N)=O)NC(=O)C(CCC(N)=O)NC(=O)C(CC(C)C)NC(=O)C(CC(N)=O)NC(=O)C(CCCCN)NC(=O)C(NC(=O)C(NC(=O)C(CO)NC(=O)C(CCSC)NC(=O)C(CCCNC(=N)N)NC(=O)CNC(=O)C(CO)NC(=O)C1CCCN1C(=O)C(C)NC(=O)C(N)CCCCN)C(C)CC)C(C)C)C(=O)NC(CO)C(=O)NC(CC(=O)O)C(=O)NC(CCCNC(=N)N)C(=O)NC(CC(=O)O)C(=O)NC(C(=O)NC(CCSC)C(=O)NCC(=O)NC(Cc1c[nH]c2ccccc12)C(=O)NC(CCSC)C(=O)NC(CC(=O)O)C(=O)NC(Cc1ccccc1)C(N)=O)c1ccc(OS(=O)(=O)O)cc1 (stereo not given) (H-KAPSGRMSIVKNLQNLDPSHRISDRD[X1]MGWMDF-NH2; configuration not given here)
tumour outcome (control, treated, inhibition, significance) (Dose [Inhibitor]: 20 IDU/KG BW 6/D FOR 15 WK FIRST DOSE GIVEN 3 HR POST CARCINOGEN DOSE (STUDY DURATION: 46 WK), Target Tissue: Type of Lesion: PANCREAS: DUCTAL/DUCTULAR CARCINOMA, Dose [Carcinogen]: 20 MG/KG BW IN PHYSIOLOGICAL SALINE ONCE): 21/40 (52%), 10/37 (27%), 48%, p<0.05
tumour outcome (control, treated, inhibition, significance) (Dose [Inhibitor]: 20 IDU/KG BW 6/D FOR 15 WK FIRST DOSE GIVEN 3 HR POST CARCINOGEN DOSE (STUDY DURATION: 46 WK), Target Tissue: Type of Lesion: PANCREAS: DUCTULAR ADENOMA, Dose [Carcinogen]: 20 MG/KG BW IN PHYSIOLOGICAL SALINE ONCE): 31/40 (78%), 22/37 (59%), 24%, not calculated
tumour outcome (control, treated, inhibition, significance) (Dose [Inhibitor]: 20 IDU/KG BW 6/D FOR 15 WK FIRST DOSE GIVEN 3 HR POST CARCINOGEN DOSE (STUDY DURATION: 46 WK), Target Tissue: Type of Lesion: PANCREAS: DUCTULAR PROLIFERATION, Dose [Carcinogen]: 20 MG/KG BW IN PHYSIOLOGICAL SALINE ONCE): 37/40 (92%), 35/37 (95%), -3%, not calculated
tumour outcome (control, treated, inhibition, significance) (Dose [Inhibitor]: 20 IDU/KG BW INJECTED AT 30 MIN INTERVALS FOR 6 DOSES, FIRST DOSE GIVEN 3 HR POST CARCINOGEN DOSE (STUDY DURATION: 46 WK, Target Tissue: Type of Lesion: PANCREAS: DUCTAL/DUCTULAR CARCINOMA, Dose [Carcinogen]: 20 MG/KG BW IN PHYSIOLOGICAL SALINE ONCE): 21/40 (52%), 17/39 (44%), 15%, not calculated
tumour outcome (control, treated, inhibition, significance) (Dose [Inhibitor]: 20 IDU/KG BW INJECTED AT 30 MIN INTERVALS FOR 6 DOSES, FIRST DOSE GIVEN 3 HR POST CARCINOGEN DOSE (STUDY DURATION: 46 WK, Target Tissue: Type of Lesion: PANCREAS: DUCTULAR PROLIFERATION, Dose [Carcinogen]: 20 MG/KG BW IN PHYSIOLOGICAL SALINE ONCE): 37/40 (92%), 37/39 (95%), -3%, not calculated
tumour outcome (control, treated, inhibition, significance) (Dose [Inhibitor]: 20 IDU/KG BW INJECTED AT 30 MIN INTERVALS FOR 6 DOSES, FIRST DOSE GIVEN 3 HR POST EACH CARCINOGEN DOSE (STUDY DURATION:, Target Tissue: Type of Lesion: PANCREAS: DUCTAL ADENOMA, Dose [Carcinogen]: 2.5 MG/KG BW IN PHYSIOLOGICAL SALINE 1/WK FOR 20 WK): 17/25 (68%), 20/25 (80%), -18%, not calculated
tumour outcome (control, treated, inhibition, significance) (Dose [Inhibitor]: 20 IDU/KG BW INJECTED AT 30 MIN INTERVALS FOR 6 DOSES, FIRST DOSE GIVEN 3 HR POST EACH CARCINOGEN DOSE (STUDY DURATION:, Target Tissue: Type of Lesion: PANCREAS: DUCTAL PROLIFERATION, Dose [Carcinogen]: 2.5 MG/KG BW IN PHYSIOLOGICAL SALINE 1/WK FOR 20 WK): 22/25 (88%), 23/25 (92%), -5%, not calculated
tumour outcome (control, treated, inhibition, significance) (Dose [Inhibitor]: 20 IDU/KG BW INJECTED AT 30 MIN INTERVALS FOR 6 DOSES, FIRST DOSE GIVEN 3 HR POST EACH CARCINOGEN DOSE (STUDY DURATION:, Target Tissue: Type of Lesion: PANCREAS: DUCTAL/DUCTULAR CARCINOMA, Dose [Carcinogen]: 2.5 MG/KG BW IN PHYSIOLOGICAL SALINE 1/WK FOR 20 WK): 15/25 (60%), 23/25 (92%), -53%, not calculated
tumour outcome (control, treated, inhibition, significance) (Dose [Inhibitor]: 20 IDU/KG BW INJECTED AT 30 MIN INTERVALS FOR 6 DOSES, FIRST DOSE GIVEN SIMULTANEOUSLY WITH CARCINOGEN DOSE (STUDY DURAT, Target Tissue: Type of Lesion: PANCREAS: DUCTAL/DUCTULAR CARCINOMA, Dose [Carcinogen]: 20 MG/KG BW IN PHYSIOLOGICAL SALINE ONCE): 21/40 (52%), 5/39 (13%), 75%, p<0.001
tumour outcome (control, treated, inhibition, significance) (Dose [Inhibitor]: 20 IDU/KG BW INJECTED AT 30 MIN INTERVALS FOR 6 DOSES, FIRST DOSE GIVEN SIMULTANEOUSLY WITH CARCINOGEN DOSE (STUDY DURAT, Target Tissue: Type of Lesion: PANCREAS: DUCTULAR ADENOMA, Dose [Carcinogen]: 20 MG/KG BW IN PHYSIOLOGICAL SALINE ONCE): 31/40 (78%), 23/39 (59%), 24%, not calculated
tumour outcome (control, treated, inhibition, significance) (Dose [Inhibitor]: 20 IDU/KG BW INJECTED AT 30 MIN INTERVALS FOR 6 DOSES, FIRST DOSE GIVEN SIMULTANEOUSLY WITH CARCINOGEN DOSE (STUDY DURAT, Target Tissue: Type of Lesion: PANCREAS: DUCTULAR PROLIFERATION, Dose [Carcinogen]: 20 MG/KG BW IN PHYSIOLOGICAL SALINE ONCE): 37/40 (92%), 35/39 (90%), 2%, not calculated
tumour outcome (control, treated, inhibition, significance) (Dose [Inhibitor]: 20 IDU/KG BW INJECTED AT 30 MIN INTERVALS FOR 6 DOSES, FIRST DOSE GIVEN SIMULTANEOUSLY WITH EACH CARCINOGEN DOSE (STUDY, Target Tissue: Type of Lesion: PANCREAS: DUCTAL ADENOMA, Dose [Carcinogen]: 2.5 MG/KG BW IN PHYSIOLOGICAL SALINE 1/WK FOR 20 WK): 17/25 (68%), 21/24 (88%), -29%, not calculated
tumour outcome (control, treated, inhibition, significance) (Dose [Inhibitor]: 20 IDU/KG BW INJECTED AT 30 MIN INTERVALS FOR 6 DOSES, FIRST DOSE GIVEN SIMULTANEOUSLY WITH EACH CARCINOGEN DOSE (STUDY, Target Tissue: Type of Lesion: PANCREAS: DUCTAL PROLIFERATION, Dose [Carcinogen]: 2.5 MG/KG BW IN PHYSIOLOGICAL SALINE 1/WK FOR 20 WK): 22/25 (88%), 22/24 (92%), -5%, not calculated
tumour outcome (control, treated, inhibition, significance) (Dose [Inhibitor]: 20 IDU/KG BW INJECTED AT 30 MIN INTERVALS FOR 6 DOSES, FIRST DOSE GIVEN SIMULTANEOUSLY WITH EACH CARCINOGEN DOSE (STUDY, Target Tissue: Type of Lesion: PANCREAS: DUCTAL/DUCTULAR CARCINOMA, Dose [Carcinogen]: 2.5 MG/KG BW IN PHYSIOLOGICAL SALINE 1/WK FOR 20 WK): 15/25 (60%), 18/24 (75%), -25%, not calculated
tumour outcome (control, treated, inhibition, significance) (Dose [Inhibitor]: 20 IDU/KG BW INJECTED AT 30 MIN INTERVALS FOR 6 DOSES, LAST DOSE 3 HR PRIOR TO CARCINOGEN DOSE (STUDY DURATION: 46 WK), Target Tissue: Type of Lesion: PANCREAS: DUCTAL/DUCTULAR CARCINOMA, Dose [Carcinogen]: 20 MG/KG BW IN PHYSIOLOGICAL SALINE ONCE): 21/40 (52%), 8/37 (22%), 58%, p<0.025
tumour outcome (control, treated, inhibition, significance) (Dose [Inhibitor]: 20 IDU/KG BW INJECTED AT 30 MIN INTERVALS FOR 6 DOSES, LAST DOSE 3 HR PRIOR TO CARCINOGEN DOSE (STUDY DURATION: 46 WK), Target Tissue: Type of Lesion: PANCREAS: DUCTULAR ADENOMA, Dose [Carcinogen]: 20 MG/KG BW IN PHYSIOLOGICAL SALINE ONCE): 31/40 (78%), 19/37 (51%), 35%, not calculated
tumour outcome (control, treated, inhibition, significance) (Dose [Inhibitor]: 20 IDU/KG BW INJECTED AT 30 MIN INTERVALS FOR 6 DOSES, LAST DOSE 3 HR PRIOR TO CARCINOGEN DOSE (STUDY DURATION: 46 WK), Target Tissue: Type of Lesion: PANCREAS: DUCTULAR PROLIFERATION, Dose [Carcinogen]: 20 MG/KG BW IN PHYSIOLOGICAL SALINE ONCE): 37/40 (92%), 33/37 (89%), 3%, not calculated
tumour outcome (control, treated, inhibition, significance) (Dose [Inhibitor]: 20 IDU/KG BW INJECTED AT 30 MIN INTERVALS FOR 6 DOSES, LAST DOSE GIVEN 3 HR PRIOR TO EACH CARCINOGEN DOSE (STUDY DURATIO, Target Tissue: Type of Lesion: PANCREAS: DUCTAL ADENOMA, Dose [Carcinogen]: 2.5 MG/KG BW IN PHYSIOLOGICAL SALINE 1/WK FOR 20 WK): 17/25 (68%), 25/29 (89%), -31%, not calculated
tumour outcome (control, treated, inhibition, significance) (Dose [Inhibitor]: 20 IDU/KG BW INJECTED AT 30 MIN INTERVALS FOR 6 DOSES, LAST DOSE GIVEN 3 HR PRIOR TO EACH CARCINOGEN DOSE (STUDY DURATIO, Target Tissue: Type of Lesion: PANCREAS: DUCTAL PROLIFERATION, Dose [Carcinogen]: 2.5 MG/KG BW IN PHYSIOLOGICAL SALINE 1/WK FOR 20 WK): 22/25 (88%), 24/29 (86%), 2%, not calculated
tumour outcome (control, treated, inhibition, significance) (Dose [Inhibitor]: 20 IDU/KG BW INJECTED AT 30 MIN INTERVALS FOR 6 DOSES, LAST DOSE GIVEN 3 HR PRIOR TO EACH CARCINOGEN DOSE (STUDY DURATIO, Target Tissue: Type of Lesion: PANCREAS: DUCTAL/DUCTULAR CARCINOMA, Dose [Carcinogen]: 2.5 MG/KG BW IN PHYSIOLOGICAL SALINE 1/WK FOR 20 WK): 15/25 (60%), 23/29 (82%), -37%, not calculated
